Results taken from patent publication US9221809B2 (MERCK SHARP & DOHME CORP., priority 2011, dated 2015).
Where a name gives a salt, the structure may show the parent alone.

Target: IRAK4 (Homo sapiens (Human), UniProt Q9NWZ3)
Assay: IRAK4 kinase activity, IMAP fluorescence polarization assay
Assay type: biochemical
Conditions: 100 μM ATP, 0.5 nM GST tagged IRAK4; read-out: IRAK4 IC50
Experimental: The kinase activity of IRAK4 is determined by its ability to catalyze the phosphorylation of a fluorescent polypeptide substrate. The extent of phosphorylation is measured using IMAP technology (Molecular Devices) where the phosphorylated fluorescent substrate binds to the large M(III)-based nanoparticles which reduces the rotational speed of the substrate and thus increases its fluorescent polarization (FP).
Assay Procedure: A 20 μl reaction mixture contains 10 mM TriHCl, pH 7.2, 0.5 nM GST tagged IRAK4 (SignalChem), 100 nM fluorescent peptide substrate (RP7030, Molecular Devices), 100 μM ATP, 1 mM DTT, 1 mM MgCl2, and 0.01% Tween 20. The reaction is initiated by the addition of ATP. After incubation for 30 minutes at 25° C., 60 μl of Progressive IMAP Reagent (Molecular Devices) is added to stop the reaction. Change in RP7030's FP is determined by a FP reader (Analyst HT, LJL BioSystems)

Sequence of IRAK4 (Q9NWZ3 whole entry): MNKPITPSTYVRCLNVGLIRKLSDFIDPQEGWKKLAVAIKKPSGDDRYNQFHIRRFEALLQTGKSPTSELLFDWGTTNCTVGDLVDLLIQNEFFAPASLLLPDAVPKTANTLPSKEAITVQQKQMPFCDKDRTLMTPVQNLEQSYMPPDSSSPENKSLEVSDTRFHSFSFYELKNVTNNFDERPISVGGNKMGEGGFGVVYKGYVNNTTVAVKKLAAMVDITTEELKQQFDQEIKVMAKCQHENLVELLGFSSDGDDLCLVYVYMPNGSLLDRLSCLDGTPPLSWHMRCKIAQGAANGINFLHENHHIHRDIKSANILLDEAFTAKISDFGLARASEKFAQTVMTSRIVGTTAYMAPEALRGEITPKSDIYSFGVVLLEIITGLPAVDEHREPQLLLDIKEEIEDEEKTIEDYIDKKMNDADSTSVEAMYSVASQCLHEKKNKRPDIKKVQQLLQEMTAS

SMILES | IC50 [nM]
O=c1[nH]c(NC2CCC2)nc(NC[C@H](O)CO)c1-c1nc2ccccc2s1 [Example 49, (S)-5-(Benzo[d]thiazol-2-yl)-2-(cyclobutylamino)-6-(2,3-dihydroxypropylamino)pyrimidin-4(3H)-one.HCl] | 5330
O=c1[nH]c(Nc2cncnc2)nc(N[C@@H]2C[C@H](CO)[C@@H](O)[C@H]2O)c1-c1nc2ccccc2s1 [Example 51, 5-(Benzo[d]thiazol-2-yl)-6-(((1R,2S,3R,4R)-2,3-dihydroxy-4-(hydroxymethyl)cyclopentyl)amino)-2-(pyrimidin-5-ylamino)pyrimidin-4(3H)-one.HCl] | 345
O=c1[nH]c(Nc2ccc(F)cc2)nc(N[C@@H]2C[C@H](CO)[C@@H](O)[C@H]2O)c1-c1nc2ccccc2s1 [Example 52, 5-(Benzo[d]thiazol-2-yl)-6-((1R,2S,3R,4R)-2,3-dihydroxy-4-(hydroxymethyl)cyclopentylamino)-2-(4-fluorophenylamino)pyrimidin-4(3H)-one.HCl] | 284
O=c1[nH]c(Nc2ccccc2)nc(N[C@@H]2C[C@H](CO)[C@@H](O)[C@H]2O)c1-c1nc2ccccc2s1 [Example 53, 5-(Benzo[d]thiazol-2-yl)-6-((1R,2S,3R,4R)-2,3-dihydroxy-4-(hydroxymethyl)cyclopentylamino)-2-(phenylamino)pyrimidin-4(3H)-one.HCl] | 327
O=c1[nH]c(Nc2ccncc2)nc(N[C@@H]2C[C@H](CO)[C@@H](O)[C@H]2O)c1-c1nc2ccccc2s1 [Example 54, 5-(Benzo[d]thiazol-2-yl)-6-((1R,2S,3R,4R)-2,3-dihydroxy-4-(hydroxymethyl)cyclopentylamino)-2-(pyridin-4-ylamino)pyrimidin-4(3H)-one.HCl] | 654
O=c1[nH]c(NC2CCC2)nc(N[C@@H]2C[C@H](CO)[C@@H](O)[C@H]2O)c1-c1nc2cnccc2s1 [Example 55, 2-(Cyclobutylamino)-6-((1R,2S,3R,4R)-2,3-dihydroxy-4-(hydroxymethyl)cyclopentylamino)-5-(thiazolo[4,5-c]pyridin-2-yl)pyrimidin-4(3H)-one.HCl] | 2.5
Cc1nccc2sc(-c3c(N[C@@H]4C[C@H](CO)[C@@H](O)[C@H]4O)nc(N4CCOCC4)[nH]c3=O)nc12 [Example 56, 6-(((1R,2S,3R,4R)-2,3-Dihydroxy-4-(hydroxymethyl)cyclopentyl)amino)-5-(4-methylthiazolo[4,5-c]pyridin-2-yl)-2-morpholinopyrimidin-4(3H)-one.HCl] | 8.4
Cc1cc2sc(-c3c(N[C@@H]4C[C@H](CO)[C@@H](O)[C@H]4O)nc(N4CCOCC4)[nH]c3=O)nc2c(C)n1 [Example 57, 6-(((1R,2S,3R,4R)-2,3-Dihydroxy-4-(hydroxymethyl)cyclopentyl)amino)-5-(4,6-dimethylthiazolo[4,5-c]pyridin-2-yl)-2-morpholinopyrimidin-4(3H)-one.HCl] | 923
O=c1[nH]c(N2CCOCC2)nc(N[C@@H]2C[C@H](CO)[C@@H](O)[C@H]2O)c1-c1nc(-c2ccc(F)cc2)cs1 [Example 58, 6-(((1R,2S,3R,4R)-2,3-Dihydroxy-4-(hydroxymethyl)cyclopentyl)amino)-5-(4-(4-fluorophenyl)thiazol-2-yl)-2-morpholinopyrimidin-4(3H)-one.HCl] | 5.6
O=c1[nH]c(N2CCCCC2)nc(N[C@@H]2C[C@H](CO)[C@@H](O)[C@H]2O)c1-c1nc(-c2ccc(F)cc2)cs1 [Example 59, 6-(((1R,2S,3R,4R)-2,3-Dihydroxy-4-(hydroxymethyl)cyclopentyl)amino)-5-(4-(4-fluorophenyl)thiazol-2-yl)-2-(piperidin-1-yl)pyrimidin-4(3H)-one HCl] | 22.5
CCc1nc(N[C@@H]2C[C@H](CO)[C@@H](O)[C@H]2O)c(-c2nc3ccccc3s2)c(=O)[nH]1 [Example 61, 5-(Benzo[d]thiazol-2-yl)-6-((1R,2S,3R,4R)-2,3-dihydroxy-4-(hydroxymethyl)cyclopentylamino)-2-ethylpyrimidin-4(3H)-one.HCl] | 1160
